Assay results: patent publication US20160113904A1, “SKIN CARE PRODUCTS COMPRISING SUBSTITUTED HYDROXYPROLINE WITH UNSATURATED FATTY ACIDS DERIVATIVES” (MEDWELL LABORATORIES LTD., priority 2013, published 2016)
Entries after “also recorded” stand apart in the source; their conditions may differ.

Columns and labels:
Type in all cases: in vivo, human
[1] = system: volunteers with Atopic dermatitis; assay: Atopic dermatitis trial: hydration level by Corneometer; details: for Change in hydration level / Hydration level: treated area; for Hydration level: Corneometer
Procedure: (§1) Ten volunteers aged 2-30 years participated in the trial. Four females and six males.
(§2) Volunteers were instructed to apply the product only on one side of the body, on the worst affected area, while the other side was defined as the control area and was not treated. The tested material, a body lotion product, was applied 1-3 times a day for a period of 4 weeks.
Hydration level was evaluated by Comeometer CM 825, Courage & Khazaka, CK. The probe of the Corneometer was placed on the skin at a constant pressure and measurements of skin hydration were taken. Skin hydration was recorded at baseline, after 1 week and after 2 weeks of treatment. Room temperature and humidity were kept constant.
(§3) A statistical comparison between T0 and the other two time-points (T1 and T2) and between the treated and the Control areas were made according to the Wilcoxon signed-ranks test, while p<0.05 indicated a significant difference

[2] = system: volunteers with Atopic dermatitis; assay: Atopic dermatitis trial: study director's evaluation of skin condition
Procedure: In Examples 1-3 an emulsion type O/W Creams of MWL-001 (2.5% and 5% w/w) was prepared using Emulgade® SE emulsifiers (glyceryl stearate), Ceteareth-20, cetearyl alcohol, cetyl palmitate, cetearyl alcohol-Lanette®, isopropyl myristate, caprilic/capric acid triglycerides (Myritol®318), strearic acid, a Trietanolamine and purified water, according to Ph Eur 6.0.
as §1, §2
Each volunteer was examined at baseline (T0), after one week (T1) and after 2 weeks of using the product (T2). The investigator rated the condition of the skin according to the parameters of the size of the affected area, dryness, scale, redness, edema, lichenification and pruritus. Both the treated and the Control areas were documented with color photographs at T0, T1 and T2.
The following parameters were evaluated: • a. Lesion area • b. Dryness • c. Scales • d. Redness • e. Edema • f. Lichenificalion
The parameters mentioned above were evaluated on a scale of 0 to 5 by the study director. • 0=None • 1=Slight • 2=Moderate • 3=Severe • 4=Extreme • 5=Very Extreme
as §3
All parameters were assessed in a scale of 0-5 where 0=none and 5=very extreme. The percentage of change was calculated at T1 and T2.

[3] = system: volunteers with Atopic dermatitis; assay: Atopic dermatitis trial: erythema level by Mexameter; details: for Change in erythema level / Erythema level: treated area; for Erythema level: Mexameter
Procedure: as §1, §2
Erythema level was evaluated by Mexameter, Courage & Khazaka, CK. The probe of the Mexameter was placed on the skin at a constant pressure and measurements of skin hydration were taken. Skin erythema level was recorded at baseline, after 1 week and after 2 weeks of treatment.
as §3

[4] = system: volunteers with psoriasis; assay: Psoriasis trial: side effects; details: topical use for 4 weeks
Source text: The participants were asked to keep a record of daily applications and to note any side effects resulting from product application.
Volunteers were asked to keep a record and report any side effects, such as dryness, burning sensation, peeling of the skin, redness or any other visible changes, and report immediately to study director.

[5] = system: volunteers with psoriasis; assay: Psoriasis trial: subjective pruritus level; details: for Pruritus level: treated area, scale 0-5
Source text: Fifteen volunteers aged 29-73 with psoriasis.
Volunteers were instructed to apply the product only on one side of the body, on the worst affected area at least once a day, for 4 weeks, while the other side was defined as the control area and was not treated.
The volunteers were asked to assess the pruritus level on a 0-5 scale at T0, T1 and T2.
A statistical comparison between T0 and the other two time-points (T1 and T2) and between the treated and the Control areas were made by paired sample t-test, while p<0.05 indicated a significant difference

[6] = system: healthy female volunteers, facial skin; assay: Anti wrinkle test: TEWL by Tewameter; details: face, treated area
Procedure: (§4) Ten healthy female volunteers were included and completed the study.
Moisture level of the skin (corneometry) and TEWL (Trans Epidermal Water Loss) were measured at each time point.
(§5) A cosmetic anti wrinkle product MW-001 was applied on half of the face for four weeks by each volunteer while the other half served as a control, without any product application during the whole test period.
TEWL (the ability not to harm the skin barrier) was measured with Tewameter TM 300, Courage & Khazaka, CK. TEWL was recorded at T0, T1 and T2. The results of TEWL in each measurement were recorded after stabilization of the curve of the results in real time. Room temperature and humidity were constant.

[7] = system: healthy female volunteers, crow's feet area around the eyes; assay: Anti wrinkle test: silicone imprints, skin roughness
Source text: as §4
Silicon imprints were taken from the crow's feet area around the eyes at both treated and control sides at each time point.
as §5
A computer program draws a realistic density three-dimensional image of the relief of the skin on a colour screen for a particular density of points selected for x and y axes and then the measurements data stored in the computer are processed and then evaluated.
This analysis consists of the following steps:
1. Generation of a roughness profile from the surface relief by alignment and filtering. 2. Calculation of standardized roughness parameters DIN 4768 ff). […].
A statistical comparison between the results at T0 and at T1 was made according to the Wilcoxon signed-ranks test, a very sensitive paired-samples non-parametric test for small groups with unknown distribution, where p<0.05 indicates a significant difference. The software used was SPSS 14.

[8] = after 2 weeks of treatment, both sides
[9] = treated area, T0 baseline, scale 0-5
[10] = treated area, T1 after one week, scale 0-5
[11] = treated area, T2 after two weeks, scale 0-5
[12] = treated area, after 1 week of treatment

SMILES: CCC=CCC=CCC=CCC=CCC=CCC=CCCC(=O)N1CC(O)CC1C(=O)O (stereo in doubt) [MW-001]
- Hydration level, statistical analysis of change ([1]; any of the sides): no significant change
- Change in hydration level ([1]; Baseline): 100%
- Hydration level ([1]; T0 baseline): 21.1
- Hydration level ([1]; T1 after one week): 30.7
- Hydration level ([1]; T2 after two weeks): 27.8
- Change in hydration level ([1]; Week 1, relative to baseline): 146%
- Change in hydration level ([1]; Week 2, relative to baseline): 132%
- Scale level, statistical analysis of change ([2]; after 1 and 2 weeks of treatment, only at the treated area): decreased significantly
- Dryness level, statistical analysis of change [2, 8]: decreased significantly
- Redness level, statistical analysis of change [2, 8]: decreased significantly
- Lichenification level, statistical analysis of change ([2]; after 2 weeks of treatment, only at the treated area): decreased significantly
- Overall efficacy conclusion ([2]; atopic dermatitis): very efficient in the treatment of atopic dermatitis
- Dryness level [2, 9]: 4.1
- Lichenification level [2, 9]: 2.8
- Redness level [2, 9]: 3.9
- Scale level [2, 9]: 2.6
- Infected area size ([2]; treated area, T0 baseline, scale 0-5, 10 volunteers): 4.3
- Dryness level [2, 10]: 1.8
- Infected area size [2, 10]: 3.2
- Lichenification level [2, 10]: 2.0
- Redness level [2, 10]: 2.4
- Scale level [2, 10]: 1.3
- Dryness level [2, 11]: 1.1
- Infected area size [2, 11]: 2.2
- Lichenification level [2, 11]: 1.3
- Redness level [2, 11]: 2.3
- Scale level [2, 11]: 0.9
- Dryness level, statistical analysis of change [2, 12]: decreased significantly
- Redness level, statistical analysis of change [2, 12]: decreased significantly
- Infected area size, statistical analysis of change ([2]; treated area, after 2 weeks of treatment, p<0.05, Wilcoxon): diminished significantly
- Change in erythema level ([3]; Baseline): 100%
- Erythema level ([3]; T0 baseline): 620.5
- Erythema level ([3]; T1 after one week): 562.7
- Erythema level ([3]; T2 after two weeks): 600.2
- Change in erythema level ([3]; Week 1, relative to baseline): 91%
- Change in erythema level ([3]; Week 2, relative to baseline): 97%
- Erythema level, statistical analysis of change ([3]; treated side, after 1 week of treatment): decreased significantly
- Erythema level, statistical analysis versus baseline ([3]; treated side, after the increase following week 1): not significantly different
- Side effects / safety [4]: No side effects were observed; also recorded: safe for use
- Pruritus level, statistical analysis of change ([5]; any of the sides, whole study period, p>0.05): No significant change
- Pruritus level ([5]; T0 baseline): 2.1
- Pruritus level ([5]; T1 after two weeks): 1.6
- Pruritus level ([5]; T2 after four weeks): 1.3
- Average TEWL level ([6]; T0 baseline): 7.8 g/hm^2
- Average TEWL level ([6]; T1 after 2 weeks of use): 9.4 g/hm^2
- Average TEWL level ([6]; T2 after 4 weeks of use): 7.6 g/hm^2
- Overall efficacy conclusion ([7]; rough and wrinkled skin): efficient for the treatment of rough and wrinkled skin
- Decrease of skin roughness ([7]; treated area, before versus after 2 weeks of use): 10.8%
- Decrease of skin roughness ([7]; treated area, before versus after 4 weeks of use): 19.5%
- Skin roughness improvement, statistical analysis ([7]; treated area, both T1 and T2, p<0.05): significant
